# From US6828350B1, “Modulators of cysteine protease” (Exegenics Inc., priority 1997, dated 2004)
# “And” between values parts separate entries of the source, which are not always exact repeats. Equal entries are not always repeated. Where two headings read alike, the source gives them in different places.
# Experiments:
# HRV 14 = assay: Antiviral assay, XTT method, HRV 14; format: cell-based
# Hl-Hela cells [1] = assay: Cytotoxicity by XTT assay (treated, mock-infected cells); settings: read-out: TC50; Format 1; concentration that retards cell growth by 50%, mock-infected Hl-Hela cells
# HRV 16 = assay: Antiviral assay, XTT method, HRV 16; format: cell-based
# HRV 1A = assay: Antiviral assay, XTT method, HRV 1A; format: cell-based
# HRV 1B = assay: Antiviral assay, XTT method, HRV 1B; format: cell-based
# Apopain (caspase-3) = molecular target: T1, Apopain (caspase-3) (Homo sapiens, UniProt P42574); assay: Apopain (Caspase-3) Regulation Assay (FluorAce Apopain Assay Kit); format: biochemical; settings: Apopain modulation: Inhibitor or Activator
# T1 construct: purchased Bio-rad FluorAce Apopain Assay Kit (booklet 4100119)
# T1 sequence (P42574 29-175 limits assumed): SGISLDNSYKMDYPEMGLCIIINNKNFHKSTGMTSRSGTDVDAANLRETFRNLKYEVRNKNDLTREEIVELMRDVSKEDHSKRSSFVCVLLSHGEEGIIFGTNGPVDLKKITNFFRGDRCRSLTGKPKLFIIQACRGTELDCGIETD
# T1 sequence (P42574 176-277 limits assumed): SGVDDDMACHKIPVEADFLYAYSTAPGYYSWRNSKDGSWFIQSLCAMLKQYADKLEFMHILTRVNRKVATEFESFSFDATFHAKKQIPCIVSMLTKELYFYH
# Method: VI: Apopain (Caspase-3) Regulation Assay
# The FluorAce™ Apopain Assay Kit (Bio-rad) was employed in multiwell format. Compounds assayed were diluted 5-fold in distilled water (from stock solutions in ethanol or DMSO) and centrifuged (5′, 14K rpm). 10 μL of the supernatant was further diluted in wells containing 100 μL distilled water and 40 μL 6×Buffer (41.7 mM PIPES, pH 7.4, 8.3 mM EDTA, 0.42% CHAPS, 20.8 mM DTT). This process was carried out twice to yield duplicate wells for each compound. Control wells were prepared by addition of EtOH and DMSO (5-fold diluted in distilled water) into wells containing 6×Buffer and distilled water (40 μL and 100 μL, respectively), to form 8 wells with each solvent. Enzyme (stock solution 10-fold diluted in distilled water, see Bio-rad booklet 4100119) was added to one set of compound-containing cells and to 8 control wells (4 with ethanol and 4 with DMSO). The plate was preincubated for ˜80′ at 27°-28° C. Substrate (Z-DEVD-AFC, 490 μM, 40 μL) was then added to all wells. The plate was left at room temperature and fluorescence (360/40↑530/20↓) was measured at several time points (FL500 fluorimetric reader, Bio-tek instruments). Fluorescence at enzyme-containing wells was background-subtracted at each time point and initial rates were determined by linear regression (typically R^2>0.97). Percentage inhibition and activation was determined by relating the slope with compound to the control slope (with appropriate solvent). IC50 values are extrapolated.
# Hl-Hela cells [2] = test system: Hl-Hela cells
# [3] = Cytotoxicity by XTT assay (treated, mock-infected cells); settings: human, H1-HeLa cells (ATCC), mock-infected
# 3C protease = settings: background, in words; cited from earlier work
# [4] = test system: elastase present in erythrocytes; settings: background, in words; cited from earlier work
# [5] = HRV 14, Format 1, restores 50% of viral-caused decrease in cell viability
Structure (SMILES),IC50 (HRV 14; [5]) [µM],CC50 (Hl-Hela cells [1]) [µM],"IC50 (HRV 14; HRV 14, Format 2)","IC50 (HRV 16; HRV 16, Format 2) [µM]",also measured
O=Cc1c(O)cc(O)cc1O [compound 34],94,410 ± 30,,,
CC(=O)c1c(O)ccc2ccccc12 [compound 35],62,180 ± 10,42 ± 20 µM,38 ± 14,"IC50 (HRV 1A; Format 2): 630 ± 470 µM; IC50 (HRV 1B; HRV 1B, Format 2): 240 ± 140 µM"
CCCCCC(=O)c1c(O)c(Cl)c(OC)c(Cl)c1O [SA#15],,,5 ± 1 µM,1.4 ± 0.8,Activity (Apopain (caspase-3)): Activator
O=C(NCc1ccccc1)c1cc([N+](=O)[O-])cc([N+](=O)[O-])c1O [SA#120],30,,40 ± 33 µM,30 ± 8,CC50 (Hl-Hela cells [2]): 271 ± 22 µM
CCCCCC(=O)c1c(O)c(Cl)c(OC)c(Cl)c1OCC(N)=O [compound 118],380,122 ± 6,,,IC50 (HRV 1A; Format 1): 81 µM
COc1ccc(O)c(C(C)=O)c1 [compound 37],146,,220 ± 23 µM,149 ± 148,"IC50 (HRV 1A; Format 2): 830 ± 330 µM; IC50 (HRV 1B; HRV 1B, Format 2): 610 ± 160 µM; Activity (Apopain (caspase-3)): Inhibitor; CC50 [3]: > 1250 µM"
O=C(CCc1ccccc1)c1cc(Cl)ccc1O [SA#43],,,,,IC50 (HRV 14): 30 ± 20 µM; IC50 (HRV 16): 340 ± 70 µM; IC50 (HRV 1B): 40 ± 10 µM
CC(=O)c1cccc(C#N)c1O [SA#51],,,,,Activity (Apopain (caspase-3)): Inhibitor
CCCCCC(=O)c1c(OC)cc(O)c(Cl)c1O [SA#134],63,48 ± 6,122 ± 14 µM,13 ± 6,"IC50 (HRV 16; HRV 16, Format 1): 12 µM"
O=c1c(O)c(-c2ccc(O)cc2)oc2cc(O)cc(O)c12 [compound 90],,,1.2 ± 0.5 µM,7 ± 4,"IC50 (HRV 1A; Format 2): 5 ± 1 µM; IC50 (HRV 1B; HRV 1B, Format 2): 7 ± 4 µM"
CCCCCC(=O)c1cc(Cl)c(O)c(Cl)c1O [SA#116],13,24 ± 6,50 ± 7 µM,61 ± 37,"IC50 (HRV 16; HRV 16, Format 1): 21 µM"
CCOC(=O)c1c(O)cc(O)c(C(C)=O)c1O [SA#132],17,29 ± 5,,,"IC50 (HRV 1A; Format 1): 13 µM; IC50 (HRV 1B; HRV 1B, Format 1): 24 µM"
CC(=O)c1cc(C)cc([N+](=O)[O-])c1O [compound 30],55,,31 ± 12 µM,29 ± 24,Activity (Apopain (caspase-3)): Inhibitor; CC50 [3]: 67 ± 8 µM
CC(=O)c1cc(Br)cc(Br)c1O [compound 38],26,59 ± 4,10 ± 2 µM,6 ± 2,
O=c1cc(-c2ccccc2)oc2c(Cl)c(O)c(Cl)c(O)c12 [compound 100],,,27 ± 25 µM,,
O=C(NCCc1ccccc1)c1cc([N+](=O)[O-])cc([N+](=O)[O-])c1O [SA#127],23,,16 ± 4 µM,15 ± 4,"IC50 (HRV 1A; Format 2): 13 ± 3 µM; IC50 (HRV 1B; HRV 1B, Format 2): 11 ± 1 µM; CC50 (Hl-Hela cells [2]): 187 ± 18 µM"
CC(=O)c1cc(Cl)cc(Cl)c1O [compound 29],4.8,29 ± 8,6 ± 2 µM,6 ± 2,"IC50 (HRV 1A; Format 2): 19 ± 8 µM; IC50 (HRV 1B; HRV 1B, Format 2): 8 ± 5 µM"
COC(=O)c1c(O)cc(C)cc1O [compound 147],,,,70 ± 50,
"CC(=O)c1c(O)cccc1OCC(N)=O (hydrate or solvate) [SA#121, 2-(2-acetyl-3-hydroxyphenoxy)-acetamide]",,,,,melting point: 151 to 152 °C
O=C(c1ccccc1)c1ccccc1O [compound 136],6.3,28 ± 2,13 ± 5 µM,6 ± 3,
CC(=O)c1cc(Cl)cc([N+](=O)[O-])c1O [compound 31],14,12 ± 1,11 ± 1 µM,35 ± 26,IC50 (HRV 1A; Format 2): 80 ± 62 µM
COc1cc(O)c(C(C)=O)c(OC)c1 [compound 14],,780 ± 206,,,"IC50 (HRV 16; HRV 16, Format 1): 225 µM"
CC(=O)c1c(O)c(Cl)cc(Cl)c1O [SA#109],,,590 ± 320 µM,,Activity (Apopain (caspase-3)): Inhibitor
CC(=O)c1c(O)cccc1O [compound 9],,,110 ± 14 µM,200 ± 110,Activity (Apopain (caspase-3)): Activator
O=c1cc(-c2ccccc2)oc2cc(O)cc(O)c12 [compound 83],,,250 ± 90 µM,,
CC(=O)c1ccc(O)cc1O [compound 7],,,,810 ± 180,

Structure (SMILES),IC50 (HRV 14; [5]) [µM],CC50 (Hl-Hela cells [1]) [µM],"IC50 (HRV 14; HRV 14, Format 2)","IC50 (HRV 16; HRV 16, Format 2) [µM]",also measured
O=C(c1ccccc1O)c1ccccc1O [compound 131],0.6,,10 µM and 10.5 µM,0.5 ± 0.4,IC50 (HRV 1A; Format 2): 43 ± 9 µM
"CC(=O)c1c(O)cccc1OCC(N)=O [SA#121, 2-(2-acetyl-3-hydroxyphenoxy)-acetamide]",189,,120 ± 50 µM,420 ± 140,IC50 (HRV 1A; Format 1): 198 µM; CC50 [3]: 425 ± 8 µM
O=C(CCc1ccc(O)cc1)c1c(O)cc(O)cc1O [compound 91],,,9 ± 4 µM,50 ± 10,"IC50 (HRV 1A; Format 2): 130 ± 14 µM; IC50 (HRV 1B; HRV 1B, Format 2): 26 ± 15 µM; Activity (Apopain (caspase-3)): Inhibitor"
CC(=O)c1cc(Cl)c(C)cc1O [compound 41],,,160 ± 70 µM,,
Cc1cc(O)c(C(=O)c2ccccc2O)cc1Cl [compound 144],,,130 ± 40 µM,2.1 ± 1.6,
O=C(c1ccccc1O)c1cc(Cl)ccc1O [compound 137],0.6,,,,IC50 (HRV 1A; Format 1): 6.2 µM
O=C(CCc1ccccc1)c1ccccc1O [compound 42],,,120 ± 40 µM,,"IC50 (HRV 1A; Format 2): 210 ± 70 µM; IC50 (HRV 1B; HRV 1B, Format 2): 29 ± 1 µM"
CC(=O)c1cc(F)ccc1O [compound 27],444,,,47 ± 8,Activity (Apopain (caspase-3)): Inhibitor; CC50 [3]: > 1250 µM
CCCCCC(=O)c1ccc(O)cc1O [compound 114],,,40 ± 30 µM,70 ± 60,
CCC(=O)c1cc(O)ccc1O [compound 36],27,1720 ± 660,32 ± 4 µM,44 ± 15,
O=C(c1ccccc1O)c1cc(Br)ccc1O [compound 142],,,59 ± 4 µM,27 ± 27,IC50 (HRV 1A; Format 2): 25 ± 12 µM
CC(=O)c1cc(Br)ccc1O [compound 28],6.2,1230 ± 610,91 ± 62 µM,159 ± 44,
CC(=O)c1cc(O)ccc1O [compound 8],,,230 ± 170 µM,35 ± 7,"IC50 (HRV 1A; Format 2): 141 ± 25 µM; IC50 (HRV 1B; HRV 1B, Format 2): 33 ± 3 µM; Activity (Apopain (caspase-3)): Inhibitor"
C[C@H]1CC2=C(C(=O)c3c(O)cc(O)cc3C2=O)[C@H](O)O1 [Thysanone],,,,,inhibition of the 3C protease (3C protease): inhibitor of the 3C protease; inhibition of elastase [4]: efficient inhibitor
CCCCCC(=O)c1c(O)cc(O)c(Cl)c1OC [compound 125],45,50 ± 5,,,"IC50 (HRV 16; HRV 16, Format 1): 60 µM"
CC(=O)c1cc(Cl)ccc1O [compound 12],,> 2500,150 µM and 290 µM,590 ± 300,"IC50 (HRV 16; HRV 16, Format 1): 137 µM; IC50 (HRV 1B; HRV 1B, Format 2): 305 ± 55 µM"
C/C=C/c1cc2c(c(=O)o1)C(=O)[C@@H](O)[C@H](C)O2 [radicinin],,,,,inhibition of the 3C protease (3C protease): lower level of inhibition than thysanone
COc1ccc(C(=O)c2ccccc2O)c(O)c1 [compound 1],16,50 ± 10,23 ± 20 µM,165 ± 134,
O=Cc1cc(Cl)cc(Cl)c1O [compound 33],,,14 ± 3 µM,6 ± 1,"IC50 (HRV 1A; Format 2): 9 ± 1 µM; IC50 (HRV 1B; HRV 1B, Format 2): 4 ± 1 µM; Activity (Apopain (caspase-3)): Inhibitor"
O=Cc1cc(I)cc(I)c1O [compound 47],,,12 ± 2 µM,,Activity (Apopain (caspase-3)): Activator
Cc1ccc(O)c(C(=O)c2ccccc2O)c1 [compound 143],,,,8 ± 8,
CC(=O)c1ccccc1O [compound 6],,,210 ± 170 µM,,
CC(=O)c1c(O)cc(O)cc1O [SA#110],192,,,,"IC50 (HRV 16; HRV 16, Format 1): 425 µM; Activity (Apopain (caspase-3)): Inhibitor; CC50 [3]: 548 ± 27 µM"
O=Cc1cc([N+](=O)[O-])ccc1O [compound 46],,,170 ± 100 µM,,Activity (Apopain (caspase-3)): Inhibitor
CCCCCCCCNC(=O)c1cc([N+](=O)[O-])cc([N+](=O)[O-])c1O [SA#128],152,,31 ± 6 µM,4 ± 3,CC50 (Hl-Hela cells [2]): 429 ± 42 µM
